The values below come from patent US10329304B2, “Compounds and methods for inhibition of hedgehog signaling and phosphodiesterase” (Vanderbilt University, priority 2014, dated 2019).

Entries after “also recorded” stand apart in the source; their conditions may differ. Where two headings read alike, the source gives them in different places.

The term IC50 denotes the concentration that inhibits the measured activity by half. High values mean weaker potency, low ones greater potency.

The test system of assay [1] is Hedgehog signaling (TM3-Gli-Luc). The assay is described as follows: TM3-Gli-Luc luciferase reporter assay stimulated with 20 nM SAG. In kind it is cell-based. A digest of the protocol:
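Luciferase read-out divided by CellTiter-Glo viability, minus DMSO/no-SAG baseline, expressed relative to 20 nM SAG alone. Cells exposed to compound with SAG for 48 h at 37 °C in 2.5% FBS DMEM/F12 on gelatin. EC50 ±SEM from at least two separate-day runs.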
(In general: A reporter such as luciferase makes a cellular process visible.)

The next assay concerns B16F11. Nature of the assay: Cell viability assay (CellTiter-Blue, 72 hr). The assay is classed as cell-based, Mouse. As to the method: (§1) Cancer cell lines were seeded in 96 well tissue culture plate at a low density (10,000 cells per well) and treated with varying concentrations of Eggmanone. After 72 hr incubation, CellTiter-Blue Cell Viability Assay (Promega, Madison, Wis.) was then performed according to manufacturer's protocol. Absorbance was then measured in a Modulus Microplate reader (Promega, Madison, Wis.) at 590 nm and compared to cells treated with DMSO.
(§2) Cancer cell lines were seeded in 96 well tissue culture plate at a low density and treated with varying concentrations of compounds identified in Table 7. After 72 hr incubation, CellTiter-Blue Cell Viability Assay (Promega, Madison, Wis.) was then performed according to manufacturer's protocol. Absorbance was then measured in a Modulus Microplate reader (Promega, Madison, Wis.) at 590 nm and compared to cells treated with DMSO.

Another assay concerns the target T1, PDE4D3 (Homo sapiens, UniProt Q08499).
T1 construct: purchased BPS Biosciences (San Diego, Calif.); kinetic studies by Millipore (St. Louis, Mo.)
The assay is described as follows: In vitro PDE assay. In kind it is biochemical. The settings on record: for IC50: Table 9A; for Mode of inhibition (Lineweaver-Burk, Eadie Hofstee): purified PDE4D3. In short, it runs like this:
(§3)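 Fluorescence polarization readout: FAM-AMP formed from 100 nM FAM-cAMP binds nano-bead agent (60 min) and is read at ex 485/em 528 nm. Enzyme reactions ran 60 min at room temperature in duplicate, Tris-HCl pH 7.4 buffer with 10 mM MgCl2 and 0.05% Tween 20, compound in 1% final DMSO.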

The target in the next assay is T2, PDE4D2 (Homo sapiens, UniProt Q08499).
T2 construct: purchased BPS Biosciences (San Diego, Calif.)
T2 sequence (Q08499 303-809): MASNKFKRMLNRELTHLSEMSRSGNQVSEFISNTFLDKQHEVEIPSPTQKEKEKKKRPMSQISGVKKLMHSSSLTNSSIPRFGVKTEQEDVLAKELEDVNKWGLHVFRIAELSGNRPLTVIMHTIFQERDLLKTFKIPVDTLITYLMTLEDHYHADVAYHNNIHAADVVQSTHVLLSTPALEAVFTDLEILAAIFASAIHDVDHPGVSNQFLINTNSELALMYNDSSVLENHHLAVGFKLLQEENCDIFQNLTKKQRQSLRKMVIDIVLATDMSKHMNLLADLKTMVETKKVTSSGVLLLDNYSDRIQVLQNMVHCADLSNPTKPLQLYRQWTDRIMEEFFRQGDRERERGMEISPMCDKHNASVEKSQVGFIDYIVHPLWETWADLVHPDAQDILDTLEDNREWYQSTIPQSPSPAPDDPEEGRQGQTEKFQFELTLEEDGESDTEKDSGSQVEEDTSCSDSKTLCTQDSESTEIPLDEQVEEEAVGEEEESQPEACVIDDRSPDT
Nature of the assay: In vitro PDE assay. The assay is classed as biochemical. The settings on record: for IC50: Table 9A. A digest of the protocol:
as §3

Another assay has as its system Gli1 mRNA. Nature of the assay: Hh % Inh.: SAG-induced Gli1 expression in C3H10T½ cells (qPCR). The settings on record: Mus musculus, C3H 10T1/2, SAG-induced (100 nM), 24 hours; for inhibition at 10 µM: 10 pM [sic], read-out: C3H10T1/2 qPCR, Gh1 mRNA % Inh., 10 pM; for inhibition at 1 µM: 1 pM [sic], read-out: C3H10T1/2 qPCR, Gh1 mRNA % Inh., 1 pM; for EC50: read-out: C3H10T1/2 qPCR, Gh1 mRNA EC50. In kind it is cell-based. As to the method: Compounds are dosed from 10 mM DMSO stock solutions, and mRNA is isolated after 24 hours of compound treatment. mRNA is reverse transcribed to produce cDNA which is quantified by quantitative polymerase chain reaction (qPCR) in triplicate and levels are normalized to GAPDH levels. Data is presented as percent inhibition compared to positive control (SAG).
On the technique in general: In qPCR the cycle at which signal appears reflects the starting amount.

Another assay has as its system PC3. The assay is described as follows: Cell viability assay (CellTiter-Blue, 72 hr). The settings on record: for EC50: PC-3, human cancer cells, read-out: CELL KILLING EC50 (μM) Prostate PCx3. In kind it is cell-based. As to the method: as §1
The next assay concerns RKO. Nature of the assay: Cell viability assay (CellTiter-Blue, 72 hr). In kind it is cell-based, Human. The settings on record: for EC50: RKO, human cancer cells, read-out: CELL KILLING EC50 (μM) Colon RKO. Here is the method: as §1, §2
(Alamar Blue is a resazurin reagent that responds to reducing activity.)

The test system of the next assay is HCT116. The assay is described as follows: Cell viability assay (CellTiter-Blue, 72 hr). The assay is classed as cell-based, Human. Here is the method:
as §1, §2

[2] abbreviates: 20 nM SAG, mean ± standard error of the mean, read-out: TM3-Gli-Luc EC50.
[3] abbreviates: TM3-Gli-Luc reporter line stimulated with 20 nM SAG, mean ± SEM, Table 14, read-out: TM3-Gli-Luc EC50.
[4] abbreviates: Mus musculus, B16-F10, Table 10, read-out: CELL KILLING EC50 (μM) Melanoma B16F10.
[5] abbreviates: Table 9A, read-out: TM3 G8 Luciferase EC 50.
Where [6] appears, read: HCT-116, human cancer cells, read-out: CELL KILLING EC50 (μM) Colon HTC116.

T1 sequence (Q08499 1-673 isoform Q08499-2): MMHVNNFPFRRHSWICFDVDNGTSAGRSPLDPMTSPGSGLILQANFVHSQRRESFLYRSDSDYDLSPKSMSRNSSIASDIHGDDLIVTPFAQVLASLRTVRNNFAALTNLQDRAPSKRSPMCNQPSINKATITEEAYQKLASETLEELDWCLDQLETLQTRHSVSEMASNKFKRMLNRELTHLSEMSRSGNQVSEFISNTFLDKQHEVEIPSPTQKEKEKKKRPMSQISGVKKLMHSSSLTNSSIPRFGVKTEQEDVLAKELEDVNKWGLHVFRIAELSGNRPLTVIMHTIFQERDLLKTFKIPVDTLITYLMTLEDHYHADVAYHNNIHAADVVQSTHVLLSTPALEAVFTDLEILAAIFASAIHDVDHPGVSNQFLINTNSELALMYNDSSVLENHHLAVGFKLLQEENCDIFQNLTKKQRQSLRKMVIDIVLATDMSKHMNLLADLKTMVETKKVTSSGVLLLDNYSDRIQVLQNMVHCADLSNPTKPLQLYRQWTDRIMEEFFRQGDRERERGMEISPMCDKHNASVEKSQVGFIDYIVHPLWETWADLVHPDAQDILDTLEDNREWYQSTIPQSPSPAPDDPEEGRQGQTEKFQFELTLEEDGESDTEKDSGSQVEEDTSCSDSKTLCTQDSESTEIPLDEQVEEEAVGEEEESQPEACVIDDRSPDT

For the compound `CCCn1c(SCC(=O)c2cccs2)nc2sc3c(c2c1=O)CCCC3` [Formula 9e], the EC50 in assay [1] (setting [2]) and in assay [1] (setting [3]) was 1.3 ± 0.18 µM in each case.
Regarding `C=C(C)Cn1c(SCC(=O)c2ccncc2)nc2sc3c(c2c1=O)CCCC3` [JEH-3-048-1], the EC50 came out at 14.2 µM in the assay on B16F11 (setting [4]); 19 µM in assay [1] (setting [5]); 81.2 µM with PC3; 52.9 µM in the assay on RKO; 87.9 µM in the assay on HCT116 (setting [6]). Besides, the figures for the IC50 against PDE4D3 and on PDE4D2 were 24 µM and 16 µM, respectively. Besides, the inhibition at 10 µM in the assay with Gli1 mRNA is 28.7%.
In the case of `C=CCn1c(SCC(=O)c2cccs2)nc2sc3c(c2c1=O)CCCC3` [JEH-3-039-3], the EC50 in the assay with B16F11 (setting [4]) was found to be 3.69 µM; in assay [1] (setting [5]) it was 3.02 µM; in the assay with PC3, 50.1 µM; in the assay with RKO it was 306 µM; in the assay with HCT116 (setting [6]) it was 54.5 µM. The IC50 against PDE4D3 and at PDE4D2 was greater than 100 µM each time. Further, the inhibition at 1 µM with Gli1 mRNA was found to be 64.9%. Further, the inhibition at 10 µM with Gli1 mRNA was 66.5%.
With `C=C(C)Cn1c(SCC(=O)c2ccccc2)nc2sc3c(c2c1=O)CCCC3` [JEH-3-045-1], the midpoint of inhibition against PDE4D3, the IC50, lay at 18 µM. The compound also gave an IC50 at PDE4D2 of 14 µM. In assay [1] (setting [5]), the EC50 came to 8.49 µM. In the assay on Gli1 mRNA, the inhibition at 1 µM came to 58.1%, the inhibition at 10 µM was determined as 95.4% and the EC50 was found to be 0.809 µM.
Consider `C=C(C)Cn1c(SCC(=O)c2nccs2)nc2sc3c(c2c1=O)CCCC3` [JEH-3-069-1], for which the EC50 with B16F11 (setting [4]) was 16.1 µM; in assay [1] (setting [5]), 32.5 µM; with PC3, 69.7 µM; in the assay on RKO, 38.3 µM; with HCT116 (setting [6]), 22.9 µM. Also, the results for the IC50 against PDE4D3 and on PDE4D2 were 15 µM and 6.4 µM, respectively. The inhibition at 10 µM in the assay with Gli1 mRNA amounted to 42.8%.
For the compound `C=C(C)Cn1c(SCC(=O)c2cccs2)nc2sc3c(c2c1=O)CCCC3` [Eggmanone, 3-(2-methylallyl)-2-((2-oxo-2-(thiophen-2-yl)ethyl)thio)-5,6,7,8-tetrahydrobenzo[4,5]thieno[2,3-d]pyrimidine-4(3H)-one], the EC50 in the assay with B16F11 (72 h, read-out: EC50 (50% reduction of viable cell count at 72 hours), B16F11, Mouse Melanoma) amounted to 2.05 µM. In addition, at PDE4D3, the “Potency against PDE4D3 versus any tested PDE not of the PDE4 family” value is listed as “at least 60 fold” and the “Mode of inhibition (Lineweaver-Burk, Eadie Hofstee)” value was “exhibited a competitive mode of inhibition”. On PDE4D2, the “Inhibition of super-short isoform PDE4D2” value is recorded as “not inhibited”. Also, the “Effect on PC3 prostate cancer cell line” value in the assay on PC3 is given as “is affected”. For the same compound, the “Effect on RKO colon cancer cell line” value in the assay on RKO is listed as “significantly inhibited”. Moreover, the “Effect on HCT116 colon cancer cell line” value in the assay on HCT116 was “significantly inhibited”.
As to `C=C(C)Cn1c(SCC(=O)c2ccccn2)nc2sc3c(c2c1=O)CCCC3` [JEH-3-063], the EC50 in the assay with B16F11 (setting [4]) stood at 2.29 µM; in assay [1] (setting [5]), 39.8 µM; with PC3, 100 µM; in the assay on RKO, 7.18 µM; in the assay with HCT116 (HCT-116, 72 h, read-out: EC50 (50% reduction of viable cell count at 72 hours), HCT116, Human Colorectal Carcinoma), 3.82 µM; in the assay with HCT116 (setting [6]), 3.82 µM. Further, the IC50 against PDE4D3 came out at 23 µM; at PDE4D2 it was 4.9 µM. The inhibition at 10 µM with Gli1 mRNA came to 35.4%.
As for `C=C(C)Cn1c(SCC(=O)c2cccs2)nc2sc3c(c2c1=O)CCCC3` [EGM, Eggmanone], the EC50 was 2.22 µM with B16F11 (setting [4]); 1.35 µM in assay [1] (setting [5]); 1.41 µM in the assay on Gli1 mRNA; 77.2 µM in the assay on PC3; 54.3 µM in the assay with RKO; 11.4 µM in the assay on HCT116 (setting [6]). Besides, the IC50 at PDE4D3 stood at 1.1 µM; against PDE4D2, 1.3 µM. Besides, on PDE4D3, the “Mode of inhibition (Lineweaver-Burk, Eadie Hofstee)” value is reported as “competitive mode of inhibition; also recorded: acts in a competitive manner”. Besides, the inhibition at 1 µM in the assay on Gli1 mRNA was 53.3%. Also, the inhibition at 10 µM in the assay with Gli1 mRNA came out at 92.7%.
On to `C=C(C)Cn1c(SCC(=O)c2ccccc2)nc2sc3c(c2c1=O)CCCC3` [Formula 9g], for which the “Hh inhibitory activity / potency in words” value in assay [1] (20 nM SAG) is given as “modest potency”. Moreover, the EC50 in assay [1] (setting [2]) and in assay [1] (setting [3]) was 5.7 ± 2.1 µM throughout.
For `O=C(CSc1nc2sc3c(c2c(=O)n1C1CC1)CCCC3)c1cccs1` [JEH-3-039-2], at PDE4D3, the IC50 was greater than 100 µM. In addition, in assay [1] (setting [5]), the EC50 came out at 0.476 µM. In the assay with Gli1 mRNA, the inhibition at 1 µM is 49.3%, the inhibition at 10 µM came to 89.1% and the EC50 was found to be 0.593 µM.
